Laboratory results reported in US12590091B2, “1H-pyrrolo[3,2-C]pyridine and 1H-pyrrolo[2,3-C]pyridine derivatives as TLR9 inhibitors for the treatment of fibrosis” (BRISTOL-MYERS SQUIBB COMPANY, priority 2020, dated 2026).
pIC50: −log10 of the molar value.

Molecular target: T1, human TLR7 (Homo sapiens, UniProt Q9NYK1)
T1 construct: host or cells: HEK-Blue cells
T1 sequence (Q9NYK1 27-1049): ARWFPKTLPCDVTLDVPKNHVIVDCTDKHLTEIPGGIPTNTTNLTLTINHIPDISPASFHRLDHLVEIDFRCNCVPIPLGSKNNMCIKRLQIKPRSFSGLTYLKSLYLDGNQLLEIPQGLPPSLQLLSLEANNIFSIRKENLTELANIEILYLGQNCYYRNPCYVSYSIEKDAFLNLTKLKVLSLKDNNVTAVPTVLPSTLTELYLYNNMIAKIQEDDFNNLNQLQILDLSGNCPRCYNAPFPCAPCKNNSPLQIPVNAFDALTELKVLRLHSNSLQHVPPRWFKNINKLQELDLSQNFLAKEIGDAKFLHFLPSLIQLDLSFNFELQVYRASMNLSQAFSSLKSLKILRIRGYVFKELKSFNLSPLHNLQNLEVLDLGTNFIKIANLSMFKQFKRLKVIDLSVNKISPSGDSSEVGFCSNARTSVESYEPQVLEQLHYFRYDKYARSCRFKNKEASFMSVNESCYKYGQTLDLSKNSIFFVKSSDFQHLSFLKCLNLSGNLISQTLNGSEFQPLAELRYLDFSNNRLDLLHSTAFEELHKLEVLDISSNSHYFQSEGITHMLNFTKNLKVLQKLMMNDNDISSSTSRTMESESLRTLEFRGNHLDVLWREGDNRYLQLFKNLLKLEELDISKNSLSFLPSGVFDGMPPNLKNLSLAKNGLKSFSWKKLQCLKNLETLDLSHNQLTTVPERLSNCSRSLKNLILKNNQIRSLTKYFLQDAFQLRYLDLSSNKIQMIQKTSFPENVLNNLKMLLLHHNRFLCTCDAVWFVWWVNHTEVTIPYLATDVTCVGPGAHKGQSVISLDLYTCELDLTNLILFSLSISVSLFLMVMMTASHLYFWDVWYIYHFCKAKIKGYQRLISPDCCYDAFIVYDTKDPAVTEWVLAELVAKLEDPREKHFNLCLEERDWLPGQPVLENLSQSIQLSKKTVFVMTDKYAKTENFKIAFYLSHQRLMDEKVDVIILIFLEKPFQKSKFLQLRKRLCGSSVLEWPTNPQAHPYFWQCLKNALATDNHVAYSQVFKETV
Experiment: TLR7 inhibition reporter assay (HEK-Blue cells, SEAP reporter)
Assay type: cell-based
Conditions: HEK-Blue cells overexpressing human TLR7, stimulated with gardiquimod 7.5 μM, 22 hour incubation
How it was run: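 Human TLR7/8/9 HEK-Blue reporter lines; dose range 0.05 nM–50 μM; 30 min RT preincubation; stimulus gardiquimod 7.5 μM / R848 15.9 μM / ODN2006 5 nM respectively; 22 h, 37 °C; SEAP detected colorimetrically.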

Compared with CCOC(=O)N1CCC(N2CCC(c3cc4c(cn3)cc(-c3ccc(OC)c(OC)c3)n4C)CC2)CC1 [Example 7, Ethyl 4-(2-(3,4-dimethoxyphenyl)-1-methyl-1H-pyrrolo[3,2-c]pyridin-6-yl)-[1,4′-bipiperidine]-1′-carboxylate], COc1ccc(-c2cc3cnc(C4CCN(Cc5ccc(C)nc5)CC4)cc3n2C)cc1OC [Example 8, 2-(3,4-Dimethoxyphenyl)-1-methyl-6-(1-((6-methylpyridin-3-yl)methyl)piperidin-4-yl)-1H-pyrrolo[3,2-c]pyridine] is higher in pIC50: less than 4.30 for the first, 5.17 for the second.

Compared with Cc1nc(-c2cc(F)c(N3CCN(C4CCOCC4)CC3)c(F)c2)cc2c1cc(-c1ccc(S(C)(=O)=O)cc1)n2C [Example 89, 6-(3,5-difluoro-4-(4-(tetrahydro-2H-pyran-4-yl)piperazin-1-yl)phenyl)-1,4-dimethyl-2-(4-(methylsulfonyl)phenyl)-1H-pyrrolo[3,2-c]pyridine], Cc1nc(-c2cc(F)c(N3CCN4CCCC4C3)c(F)c2)cc2c1cc(-c1ccc(S(C)(=O)=O)cc1)n2C (stereo not drawn) [Example 98, 6-(3,5-difluoro-4-(hexahydropyrrolo[1,2-a]pyrazin-2(1H)-yl)phenyl)-1,4-dimethyl-2-(4-(methylsulfonyl)phenyl)-1H-pyrrolo[3,2-c]pyridine] is higher in pIC50: less than 4.30 for the first, 6.15 for the second. The second is the more potent here.

Cc1nc(-c2ccc(C3(O)CCN(CC(C)C)CC3)c(F)c2)cc2c1cc(-c1ccc(S(C)(=O)=O)cc1)n2C [Example 90, 4-(4-(1,4-dimethyl-2-(4-(methylsulfonyl)phenyl)-1H-pyrrolo[3,2-c]pyridin-6-yl)-2-fluorophenyl)-1-isobutylpiperidin-4-ol] and COCCN1CCC(O)(c2ccc(-c3cc4c(cc(-c5ccc(S(C)(=O)=O)cc5)n4C)c(C)n3)cc2F)CC1 [Example 92, 4-(4-(1,4-dimethyl-2-(4-(methylsulfonyl)phenyl)-1H-pyrrolo[3,2-c]pyridin-6-yl)-2-fluorophenyl)-1-(2-methoxyethyl)piperidin-4-ol] are within 0.2 log units of each other in pIC50: 5.11 for the first, 5.15 for the second.

Compared with Cc1nc(-c2ccc(C3(O)CC4CCC(C3)N4CC(C)C)c(F)c2)cc2c1cc(-c1ccc(S(C)(=O)=O)cc1)n2C [Example 91, (1R,3r,5S)-3-(4-(1,4-dimethyl-2-(4-(methylsulfonyl)phenyl)-1H-pyrrolo[3,2-c]pyridin-6-yl)-2-fluorophenyl)-8-isobutyl-8-azabicyclo[3.2.1]octan-3-ol], Cc1nc(-c2ccc(C3(O)CCN(C4CC4)CC3)c(F)c2)cc2c1cc(-c1ccc(S(C)(=O)=O)cc1)n2C [Example 93, 1-cyclopropyl-4-(4-(1,4-dimethyl-2-(4-(methylsulfonyl)phenyl)-1H-pyrrolo[3,2-c]pyridin-6-yl)-2-fluorophenyl)piperidin-4-ol] is 0.49 log units higher in pIC50: 4.51 for the first, 5.00 for the second.

Cc1nc(-c2cc(F)c(C3(O)CCN(CC(C)C)CC3)cc2F)cc2c1cc(-c1ccc(S(C)(=O)=O)cc1)n2C [Example 94, 4-(4-(1,4-dimethyl-2-(4-(methylsulfonyl)phenyl)-1H-pyrrolo[3,2-c]pyridin-6-yl)-2,5-difluorophenyl)-1-isobutylpiperidin-4-ol] and COCCN1CCC(O)(c2cc(F)c(-c3cc4c(cc(-c5ccc(S(C)(=O)=O)cc5)n4C)c(C)n3)cc2F)CC1 [Example 95, 4-(4-(1,4-dimethyl-2-(4-(methylsulfonyl)phenyl)-1H-pyrrolo[3,2-c]pyridin-6-yl)-2,5-difluorophenyl)-1-(2-methoxyethyl)piperidin-4-ol] are within 0.2 log units of each other in pIC50: 5.44 for the first, 5.49 for the second.

Cc1nc(-c2cc(F)c(C3(O)CCN(C4CC4)CC3)cc2F)cc2c1cc(-c1ccc(S(C)(=O)=O)cc1)n2C [Example 96, 1-cyclopropyl-4-(4-(1,4-dimethyl-2-(4-(methylsulfonyl)phenyl)-1H-pyrrolo[3,2-c]pyridin-6-yl)-2,5-difluorophenyl)piperidin-4-ol] and Cc1nc(-c2cc(F)c(N3CCN4CCCC4C3)cc2F)cc2c1cc(-c1ccc(S(C)(=O)=O)cc1)n2C (stereo not drawn) [Example 97, 6-(2,5-difluoro-4-(hexahydropyrrolo[1,2-a]pyrazin-2(1H)-yl)phenyl)-1,4-dimethyl-2-(4-(methylsulfonyl)phenyl)-1H-pyrrolo[3,2-c]pyridine] are within 0.2 log units of each other in pIC50: 5.54 for the first, 5.42 for the second.
